Experiments:
Type in all cases: cell-based, human
[1] = test system: PMNs; experiment: Heme protein effect on DCFH oxidation in unstimulated, LPS and TNFα-, and PMA-stimulated PMNs, with or without NOS inhibitors, SOD or antioxidants; conditions: for increase in DCFH oxidation compared with 0 and 1000 μg/mL oxyMb: 30 μg/mL oxyMb
Procedure: DCFH-loaded PMNs were incubated with and without N-methyl-L-arginine (L-NMMA; 5 mM; Calbiochem, San Diego, Calif.) and heme proteins (0.3-1000 μg/mL) at 37 ° C. for 10 minutes. […] In unstimulated and LPS and TNFα -stimulated PMNs, the treatments were oxyMb, or oxyMb+L-NMMA (5 mM). […] RBC cell membranes were ruptured using a micro-ultrasonic cell disrupter, Kontes, Janke and Kukel Gmbh and CO. (Stauten, Germany). […] OxyMb was prepared by mixing excess sodium dithionite with Mb for 1 h and inorganic sulfur compounds were removed by dialyzing in HBSS buffer for 3 h. Percent iron in the ferric state in non-dithionite treated oxyMb or oxyHb was not assessed. […] […] cross-linked Hb was a gift from Walter Reed Army Institute of Research. […] Also, various concentrations of bovine liver Cu, Zn SOD (30-10,000 U/mL; 8-2640 μg/mL) and 30 μg/mL oxyMb were incubated with PMA-stimulated PMNs pretreated with and without L-NMMA. Flow cytometric measurements of oxidant-induced DCF fluorescence were performed as described above.

[2] = test system: PMNs; experiment: Extracellular O2.− produced by PMA-stimulated PMNs (cytochrome c reduction)
Procedure: PMNs (200,000/200 μl HBSS) were treated with various concentrations of oxyMb or bovine liver Cu, Zn SOD (0.05-1000 μg/mL) in a 340 ATTC 96-well reader (SLT-Labinstruments, Salzburg, Austria) and activated with PMA. O2.^− production was determined by measuring reduction of cytochrome c, at 550 nm.

[3] = test system: PMNs; experiment: Heme protein effect on DCFH oxidation in unstimulated, LPS and TNFα-, and PMA-stimulated PMNs, with or without NOS inhibitors, SOD or antioxidants; conditions: 10,000 U/mL; 26,300 μg/mL, 30 μg/mL oxyMb
[4] = test system: PMNs; experiment: OxyHb-FLEX bound to and internalized into PMNs (flow cytometry); conditions: concentrations ≧30 μg/mL
Procedure: OxyHb bound to and internalized into PMNs was determined using fluorescein-conjugated oxyHb (Molecular Probes, Eugene, Oreg.). […] Flow cytometric measurements were performed as described above. To visualize intracellular levels of oxyHb-FLEX, whole cell and Z-plane images of PMNs were collected using an Axiovert 135 inverted confocal microscope (Zeiss, Thornwood, N.Y., and Atto Instruments, Rockville, Md.).

[5] = test system: PMNs; experiment: Total nitrite/nitrate levels in filtrates of PMA-stimulated PMNs; conditions: oxyMb 30 μg/mL
Procedure: Total nitrate and nitrite levels in filtrates of PMNs were determined by reducing the nitrate to nitrite by nitrate reductase and reacting the resulting nitrite with 2,3-diaminonaphthalene to form a fluorescent product. PMNs (500,000/300 ul HBSS) were treated with oxyMb (1-1000 µg/mL) and SOD (30 U) for 10 min followed by PMA (200 nM) for 1 h at 30° C. Filtrates were collected by centrifugation at 16,000 g for 15 min through Ultrafree-MC 10,000 NMWL filters (Millipore, Bedford, Mass.). Total nitrite levels were determined with a 96-well fluorescence analyzer (IDEXX, Westbrook, Me.). PMNs exposed to the same treatment were analyzed by flow cytometry for DCFH oxidation.

[6] = test system: PMNs; experiment: Phosphatidylserine externalization on PMN plasma membrane (annexin V); conditions: oxyMb 30 μg/mL, PMA 1 h
Procedure: Levels of phosphatidylserine on the outer surface of plasma membrane were determined by FITC-labeled annexin V (8 μg per 300,000 PMNs/100 μL) according to manufacturer's instructions (Caltag Laboratories, Burlingame, Calif.). PMNs were incubated with and without L-NMMA (5 mM) and oxyMb (1-1000 μg/mL) for 10 min at 37° C. followed by PMA (200 nM) for 1 h at 37° C. PMNs were then incubated with annexin V for 30 min and propidium iodide (0.75 mM) for 2-3 min at 4° C. prior to flow cytometric analyses.

[7] = test system: PMNs; experiment: DNA strand breaks in PMA-activated PMNs (tdt-mediated dUTP nick end labeling); conditions: oxyMb 30 μg/mL, PMA 2 h
Procedure: OxyMb effect on DNA strand breaks in PMA-activated PMNs was measured by flow cytometry using the tdt-mediated dUTP nick end labeling assay (In Situ Cell Death Detection Kit, Fluorescein, Boehringer Mannheim, Indianapolis, Ind.) according to manufacturer's instructions. PMNs were incubated with and without NMMA (5 mM) and oxyMb (1-1000 μg/mL) for 10 min at 37° C. PMNs were subsequently treated with PMA (200 nM) for 2 h at 37° C. Label solutions without terminal transferase or with DNase I (10 U) served as negative and positive controls, respectively.

[8] = test system: PMNs; experiment: Propidium iodide determination of PMN viability (membrane integrity); conditions: oxyMb 30 μg/mL, PMA 2 h
Procedure: (§1) PMNs were incubated with and without L-NMMA (5 mM) and oxyMb (1-1000 μg/mL) for 10 min at 37° C. followed by PMA (200 nM) for 2 h at 37° C. Membrane integrity was determined flow cytometry analyses after a 2-3 min treatment with PI (0.75 mM).

[9] = test system: PMNs; experiment: ATP levels in PMA-activated PMNs (bioluminescent somatic cell assay); conditions: oxyMb 30 μg/mL, PMA 2 h
Procedure: OxyMb effect on ATP levels in PMA-activated PMNs was measured using the Bioluminescent Somatic Cell Assay Kit according to the manufacturer's instructions. PMNs were incubated with and without L-NIO (5 mM) and oxyMb (1-1000 μg/mL) for 10 min at 37° C. PMNs were subsequently treated with PMA (200 nM) for 2 h at 37° C. PMNs were lysed, frozen at −20° C. and analyzed within 24 h. Emitted light was determined in a camera luminometer, Tropix (Redford, Mass.) using Panchromatic black and white, ISO 20,000, type 612 film, Polaroid (Cambridge, Mass.) with an exposure time of 2.5 min. Level of exposure was measured and digitized with a solid state camera, COHU (San Diego, Calif.) and analyzed using the public domain NIH Image 1.55 program. Statistical analysis. All values are presented as mean±SEM. The Kolmogorov-Smirnov test was used to verify the normal distribution of the data. Groups were compared by using analysis of variance with the Fisher least significant difference (LSD) post hoc procedure. Statistical significance was accepted at P values<0.05.

[10] = test system: lymphocytes; experiment: Plasma membrane integrity of lymphocytes co-incubated with PMA-activated, oxyMb-treated PMNs; conditions: oxyMb 30 μg/mL
Procedure: as §1
A mixed PMN/lymphocyte preparation was used to determine if the NO. produced by PMNs could affect the plasma membrane integrity of neighboring lymphocytes. PMA-activated and oxyMb (30 μg/mL)-treated PMNs decreased lymphocyte plasma membrane integrity as the ratio of PMNs/lymphocyte increased from 0:1 (76%) to 4:1 (68%) to 10:1 (61%).

[11] = LPS and TNFα-stimulated PMNs, 30 ug/mL oxyMb

Bovine liver SOD: bovine liver Cu, Zn superoxide dismutase
SOD concentration producing peak levels of DCFH oxidation ([1]; PMA-stimulated PMNs, in the presence of 30 μg/mL oxyMb): 300 U/mL
potency in reducing extracellular O2.− relative to oxyMb [2]: 100-1000 fold
effect on DCF fluorescence at highest SOD concentration [3]: reduced DCF fluorescence below control levels

fluorescein-5-EX succinimidyl ester conjugated to oxyhemoglobin [OxyHb-FLEX]
OxyHb-FLEX bound to and internalized into PMA-stimulated PMNs relative to unstimulated PMNs [4]: 2-6 fold

oxymyoglobin [oxyMb]
oxyMb concentration at which DCFH oxidation peaked ([1]; LPS and TNFα-stimulated PMNs): 30 µg/mL
increase in DCFH oxidation compared with 0 μg/mL oxyMb [1, 11]: approximately 6 fold
increase in DCFH oxidation compared with 1000 μg/mL oxyMb [1, 11]: ~3 fold
oxyMb concentration of peak response in DCFH oxidation ([1]; PMA-stimulated PMNs): 30 µg/mL
increase in DCFH oxidation compared with 0 and 1000 μg/mL oxyMb ([1]; PMA-stimulated PMNs): approximately 3 fold
DCFH fluorescence relative to control levels ([1]; oxyMb 100 μg/mL in the presence of albumin, data not shown): 5 times
increase in DCFH oxidation compared with 0 and 1000 μg/mL oxyMb ([1]; unstimulated PMNs): approximately 4 fold
nitrite levels compared with untreated PMNs [5]: doubling
phosphatidylserine positive PMNs [6]: 20%
phosphatidylserine positive PMNs, greater than PMNs without oxyMb [6]: 5 fold
PMNs containing DNA strand breaks [7]: 50%
PMNs containing DNA strand breaks, greater than PMNs without oxyMb [7]: 4 fold
PMN plasma membrane damage (reduced viability) [8]: 87%
PMN plasma membrane damage, higher than PMNs without oxyMb [8]: 3 fold
intracellular ATP levels [9]: 6 ng/300,000 PMNs
intracellular ATP levels, lower than PMNs without oxyMb [9]: 9 fold
lymphocyte plasma membrane integrity ([10]; PMNs/lymphocyte ratio 0:1, PMA): 76%
lymphocyte plasma membrane integrity ([10]; PMNs/lymphocyte ratio 4:1, PMA): 68%
lymphocyte plasma membrane integrity ([10]; PMNs/lymphocyte ratio 10:1, PMA): 61%

Source: US20030118983A1, “Rapid screening procedure for inflammation mediators” (priority 2000, published 2003)
